In patent US20070056361A1, “Partitioning gas tracer tests” (UNIVERSITY OF DELAWARE office of the Vice Provost for …, priority 2003, published 2007):
Where two headings read alike, the source gives them in different places. Marks after values point to notes of the source that are not given here.

Tests used:
[1] = for every 10° C. increase in temperature; cited from earlier work
[2] = at 25° C., gas/water, cited from earlier work
[3] = Henry's law constant in batch systems from 4° C. to 50° C.; assay type: physicochemical
Description: Difluoromethane was selected as the partitioning tracer, which partitions into water within the solid waste, while helium was selected as the conservative tracer. A key thermodynamic parameter necessary for interpretation of data from a PGTT is the Henry's law constant of the partitioning tracer. Laboratory tests were conducted in batch systems to determine the Henry's law constant for difluoromethane from 4° C. to 50° C., which covers the temperature range observed in our field tests. In addition, batch experiments were also conducted with filter paper wetted to different degrees to assess the ability of PGTT to measure water in small pores and sorbed to solid surfaces.

[4] = Henry's law constant from gas tracer tests in sand column wetted with landfill leachate; assay type: physicochemical
Description: Three trials were performed to determine KH for the leachate. The experimental procedures were modified slightly from those described above for distilled water. Here, the column was packed with dry sand, purged with nitrogen, and the leachate was flushed upward in the vertically-mounted column to displace the gas. Nitrogen was then injected into the top of the column to force the mobile water out of the column. This procedure allowed the column to be wetted with the leachate while under anaerobic conditions. Between experimental trials anaerobic conditions were maintained in the column to minimize reactions within the leachate that might alter its composition. The temperatures for the leachate tests ranged between 25.5-26.0° C.
The Henry's law constant was determined in each of the above tests using the tracer breakthrough curves and the known porosity and water saturation for the porous medium. Time moment analysis was used to determine the mean tracer velocities; Rf was computed from eq. 1; and using known n and Sw, KH was computed from eq. 3.
Three PGTT were conducted with landfill leachate to explore the influence of leachate composition on difluoromethane partitioning. The porosity and leachate saturation of the sand column were n=0.41 and Sw=0.17 respectively, while the average interstitial gas velocity used in the tracer tests was 25.2 m/day. […]

[5] = clean water, Deeds et al. 1999; cited from earlier work
[6] = measured at 25° C. (Worksafe Australia); cited from earlier work
[7] = Henry's law constant from gas tracer tests in sand column wetted with distilled water; assay type: physicochemical; details: distilled water at 22.5-24.1° C., six trials, ± 95% confidence interval
Description: The experimental procedure used to determine KH was similar to that reported in an earlier study (Deeds, N. E.; McKinney, D. C.; Pope, G. A.; Whitely Jr., G. A. Difluoromethane as partitioning tracer to estimate vadose water saturations. Journal of Environmental Engineering 1999, 125, 630-633). A jacketed glass column 60-cm long and 5-cm in diameter (Ace Glass, Inc., Vineland, N.J.) was packed with 50/70 silica sand (d50=0.26 mm, uniformity index=1.186; U.S. Silica, Ill.) underwater using distilled water. The column was positioned vertically, and suction was applied to the bottom of the column to drain water from the porous medium. […]
A water bath and pump were used to recirculate water in the glass jacket surrounding the porous medium to maintain fluid and gas temperatures between 22.5-24.1° C. during the experiments. […] Tracer concentrations in the gas samples were quantified with a gas chromatograph (Model 8610C, SRI Instruments, Torrance, Calif.): tracers were separated using mol-sieve and silica gel packed columns and then detected with a thermal conductivity (helium) or flame ionization detector (difluoromethane). […]
The Henry's law constant was determined in each of the above tests using the tracer breakthrough curves and the known porosity and water saturation for the porous medium. […]

CF [fluoromethane]
Increase in KH with temperature [1]: approximately 20%

[He] [Helium]
KH (dimensionless Henry's law constant) [2]: 106^a | KH (dimensionless Henry's law constant) ([2]; listed as helium): ≈ 100

FCF [Difluoromethane]
KH (Henry's law constant) ([3]; at 4° C.): 0.34 | KH (Henry's law constant) ([3]; at 50° C.): 0.99 | KH (Henry's law constant) ([4]; landfill leachate (Cherry Island Landfill), 25.5-26.0° C., three trials, ± 95% confidence interval): 0.57±0.09 | Increase of KH in leachate relative to distilled water ([4]; leachate vs distilled water, mean temperature about 2.5° C. higher): 20% | KH (Henry's law constant) [5]: 0.59 | Log n-Octanol/Water Partition Coefficient [6]: 0.21^c | KH (dimensionless Henry's law constant) [7]: 0.47^b | KH (dimensionless Henry's law constant) ([7]; listed as difluoromethane): 0.47±0.07
